Experimental data: patent US20210382058A1, “PATIENT SELECTION FOR TREATMENT OF MYC POSITIVE CANCERS WITH INDENOISOQUINOLINES” (Purdue Research Foundation, priority 2020, published 2021)
Where two headings read alike, the source gives them in different places.

Columns and labels:
[1] = tested on: MYC protein expression in MCF-7 breast cancer cells; assay: Western blotting of MYC protein level in MCF-7 cells; type: cell-based, human; conditions: MCF-7, 0.5, 1, 2, and 4 μM, 24 h
Summary of the method: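 MCF-7 cells were exposed to compounds at 0.5, 1, 2 and 4 μM for 24 hours at 37° C. MYC was detected by immunoblot with ECL, using rabbit anti-MYC (1:1000) and anti-GAPDH (1:2000) as loading control.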

NCI-60 cancer cell lines = assay: NCI-60 cancer cell line drug screen (GI50, MGM); type: cell-based, human; conditions: for GI50: read-out: Antiproliferative Activities [GI50 (μM)]
Protocol: Cancer cells were incubated with the test compounds at five concentrations ranging from 100 μM to 10 nM for 48 h. […] The approximate average of GI50 values across the entire panel of NCI-60 cancer cell lines for each compound was recorded as the MGM value.

MycG4 (MycPu22 DNA) = assay: 1H NMR titration of MycPu22 DNA; type: binding, human; conditions: 150 μM DNA, 25° C., pH 7, 100 mM K+
Description: The binding interactions of six selected indenoisoquinolines with MycG4 were examined using ^1H NMR titration experiments in K^+-containing solution. […] The binding appeared to be in the medium-to-fast exchange rate on the NMR time-scale, as shown by the broadening of DNA proton peaks at lower drug equivalence (0.5 and 1) and the sharpening at higher drug equivalence (2 and 3). […] The MycG4 complexes of the five MycG4-interactive indenoisoquinolines were monomeric in nature as shown by native EMSA gels (FIG. 13).
All NMR experiments were conducted using a Bruker AV-500 spectrometer equipped with a Prodigy cryoprobe at 25° C. Watergate water suppression technique was used to suppress water signals. Briefly, each DNA sample was prepared to a final concentration of […] in 75 mM KCl, 25 mM phosphate buffer at pH 7.0, and containing 90/10% H2O/D2O. DNA samples were heated to 95° C. for 5 min then cooled slowly to room temperature for G4 formation. ^1H-NMR titrations were performed by adding increasing amounts of the compound (0.5 to 4 equivalents) to the oligonucleotide solution.

COc1cnc2c(c1)C(=O)c1c-2n(CCCNC2=NCCS2)c(=O)c2cc([N+](=O)[O-])ccc12 [Compound 12]
MYC-inhibitory effect (MYC protein, western blot) [1]: clear MYC-inhibitory effect | GI50 (NCI-60 cancer cell lines; Homo sapiens, 786-0, Renal Cancer, 786-0): 0.02 µM | GI50 (NCI-60 cancer cell lines; Homo sapiens, A549, Non-Small Cell Lung Cancer, A549/ATCC): 0.04 µM | GI50 (NCI-60 cancer cell lines; Homo sapiens, ACHN, Renal Cancer, ACHN): < 0.01 µM | GI50 (NCI-60 cancer cell lines; Homo sapiens, BT-549, Breast Cancer, BT-549): 0.05 µM | GI50 (NCI-60 cancer cell lines; Homo sapiens, CAKI-1, Renal Cancer, CAKI-1): < 0.01 µM | GI50 (NCI-60 cancer cell lines; Homo sapiens, CCRF-CEM, Leukemia, CCRF-CEM): < 0.01 µM | GI50 (NCI-60 cancer cell lines; Homo sapiens, COLO 205, Colon Cancer, COLO 205): 0.24 µM | GI50 (NCI-60 cancer cell lines; Homo sapiens, DU-145, Prostate Cancer, DU-145): < 0.01 µM | GI50 (NCI-60 cancer cell lines; Homo sapiens, EKVX, Non-Small Cell Lung Cancer, EKVX): 1.01 µM | GI50 (NCI-60 cancer cell lines; Homo sapiens, HCC 2998, Colon Cancer, HCC-2998): 1.03 µM | GI50 (NCI-60 cancer cell lines; Homo sapiens, HCT-15, Colon Cancer, HCT-15): 1.17 µM | GI50 (NCI-60 cancer cell lines; Homo sapiens, HL-60, Leukemia, HL-60(TB)): < 0.01 µM | GI50 (NCI-60 cancer cell lines; Homo sapiens, HOP-62, Non-Small Cell Lung Cancer, HOP-62): 0.01 µM | GI50 (NCI-60 cancer cell lines; Homo sapiens, HOP-92, Non-Small Cell Lung Cancer, HOP-92): 1.38 µM | GI50 (NCI-60 cancer cell lines; Homo sapiens, HT-29, Colon Cancer, HT29): 0.03 µM | GI50 (NCI-60 cancer cell lines; Homo sapiens, Hs-578T, Breast Cancer, HS 578T): 1.82 µM | GI50 (NCI-60 cancer cell lines; Homo sapiens, IGROV-1, Ovarian Cancer, IGROV1): 0.08 µM | GI50 (NCI-60 cancer cell lines; Homo sapiens, K562, Leukemia, K-562): 0.11 µM | GI50 (NCI-60 cancer cell lines; Homo sapiens, KM12, Colon Cancer, KM12): 1.11 µM | GI50 (NCI-60 cancer cell lines; Homo sapiens, LOX IMVI, Melanoma, LOX IMVI): < 0.01 µM | GI50 (NCI-60 cancer cell lines; Homo sapiens, Leukemia, SR): < 0.01 µM | GI50 (NCI-60 cancer cell lines; Homo sapiens, MCF7, Breast Cancer, MCF7): < 0.01 µM | GI50 (NCI-60 cancer cell lines; Homo sapiens, MDA-MB-231, Breast Cancer, MDA-MB-231/ATCC): 1.61 µM | GI50 (NCI-60 cancer cell lines; Homo sapiens, MDA-MB-435, Melanoma, MDA-MB-435): 0.48 µM | GI50 (NCI-60 cancer cell lines; Homo sapiens, MDA-MB-468, Breast Cancer, MDA-MB-468): 0.03 µM | GI50 (NCI-60 cancer cell lines; Homo sapiens, MOLT-4, Leukemia, MOLT-4): < 0.01 µM | GI50 (NCI-60 cancer cell lines; Homo sapiens, Malme-3M, Melanoma, MALME-3M): 0.62 µM | GI50 (NCI-60 cancer cell lines; Homo sapiens, Melanoma, M14): < 0.01 µM | GI50 (NCI-60 cancer cell lines; Homo sapiens, NCI-H23, Non-Small Cell Lung Cancer, NCI-H23): 0.02 µM | GI50 (NCI-60 cancer cell lines; Homo sapiens, NCI-H226, Non-Small Cell Lung Cancer, NCI-H226): 0.04 µM | GI50 (NCI-60 cancer cell lines; Homo sapiens, NCI-H322M, Non-Small Cell Lung Cancer, NCI-H322M): 0.04 µM | GI50 (NCI-60 cancer cell lines; Homo sapiens, NCI-H460, Non-Small Cell Lung Cancer, NCI-H460): < 0.01 µM | GI50 (NCI-60 cancer cell lines; Homo sapiens, NCI-H522, Non-Small Cell Lung Cancer, NCI-H522): < 0.01 µM | GI50 (NCI-60 cancer cell lines; Homo sapiens, OVCAR-3, Ovarian Cancer, OVCAR-3): 0.14 µM | GI50 (NCI-60 cancer cell lines; Homo sapiens, OVCAR-4, Ovarian Cancer, OVCAR-4): 0.48 µM | GI50 (NCI-60 cancer cell lines; Homo sapiens, OVCAR-5, Ovarian Cancer, OVCAR-5): 1.04 µM | GI50 (NCI-60 cancer cell lines; Homo sapiens, OVCAR-8, Ovarian Cancer, OVCAR-8): 0.02 µM | GI50 (NCI-60 cancer cell lines; Homo sapiens, Ovarian Cancer, NCl/ADR-RES): 0.02 µM | GI50 (NCI-60 cancer cell lines; Homo sapiens, Prostate Cancer, PC-3): 1.28 µM | GI50 (NCI-60 cancer cell lines; Homo sapiens, RPMI-8226, Leukemia, RPMI-8226): 0.03 µM | GI50 (NCI-60 cancer cell lines; Homo sapiens, RXF 393, Renal Cancer, RXF 393): 0.03 µM | GI50 (NCI-60 cancer cell lines; Homo sapiens, Renal Cancer, U0-31): < 0.01 µM | GI50 (NCI-60 cancer cell lines; Homo sapiens, SF-268, CNS Cancer, SF-268): < 0.01 µM | GI50 (NCI-60 cancer cell lines; Homo sapiens, SF-295, CNS Cancer, SF-295): 0.01 µM | GI50 (NCI-60 cancer cell lines; Homo sapiens, SF-539, CNS Cancer, SF-539): 0.04 µM | GI50 (NCI-60 cancer cell lines; Homo sapiens, SK-MEL-2, Melanoma, SK-MEL-2): 1.56 µM | GI50 (NCI-60 cancer cell lines; Homo sapiens, SK-MEL-5, Melanoma, SK-MEL-5): 0.03 µM | GI50 (NCI-60 cancer cell lines; Homo sapiens, SK-MEL-28, Melanoma, SK-MEL-28): 1.18 µM | GI50 (NCI-60 cancer cell lines; Homo sapiens, SK-OV-3, Ovarian Cancer, SK-OV-3): 0.01 µM | GI50 (NCI-60 cancer cell lines; Homo sapiens, SN12C, Renal Cancer, SN12C): < 0.01 µM | GI50 (NCI-60 cancer cell lines; Homo sapiens, SNB-19, CNS Cancer, SNB-19): 0.01 µM | GI50 (NCI-60 cancer cell lines; Homo sapiens, SNB-75, CNS Cancer, SNB-75): 0.03 µM | GI50 (NCI-60 cancer cell lines; Homo sapiens, SW-620, Colon Cancer, SW-620): 0.01 µM | GI50 (NCI-60 cancer cell lines; Homo sapiens, T47D, Breast Cancer, T-47D): < 0.01 µM | GI50 (NCI-60 cancer cell lines; Homo sapiens, TK-10, Renal Cancer, TK-10): 1.34 µM | GI50 (NCI-60 cancer cell lines; Homo sapiens, U-251, CNS Cancer, U251): < 0.01 µM | GI50 (NCI-60 cancer cell lines; Homo sapiens, UACC-62, Melanoma, UACC-62): < 0.01 µM | GI50 (NCI-60 cancer cell lines; Homo sapiens, UACC-257, Melanoma, UACC-257): 0.58 µM | mean GI50 across NCI-60 panel (MGM) (NCI-60 cancer cell lines; Homo sapiens, average of GI50 values across the entire panel of NCI-60 cancer cell lines): 55 nM | anticancer activity (GI50 profile) in words (NCI-60 cancer cell lines; NCI-60 panel): more potent anticancer activities compared to compounds 4 and 20 | binding to MycG4 by 1H NMR titration (MycG4 (MycPu22 DNA)): less well-defined MycG4 complexes
